According to ChEMBL document CHEMBL1201862, “PubChem BioAssay data set” (2004):
Active and inactive are the calls of the source.

Key:
[1] = target: T1, Ubiquitin-conjugating enzyme E2 N (Homo sapiens, UniProt P61088); format: functional;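 also: Dose-response confirmation in a TR-FRET assay detecting UBC13-driven polyubiquitin chain formation, inhibition measured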
T1 sequence (P61088 whole entry): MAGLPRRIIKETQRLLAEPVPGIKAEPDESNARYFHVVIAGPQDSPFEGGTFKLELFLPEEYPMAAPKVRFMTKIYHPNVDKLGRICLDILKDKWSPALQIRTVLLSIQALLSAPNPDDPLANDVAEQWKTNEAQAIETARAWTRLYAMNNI

[2] = viability of uninfected HEp-2 cells – cell-based, HTS, cytotoxicity control for RSV inhibitor project, dose response (AID 2410); format: functional; details: human respiratory syncytial virus
[3] = microbe, parasite or virus in culture; format: functional; details: Mycobacterium tuberculosis
[4] = target: T2, Corticotropin-releasing factor receptor 2/Corticotropin-releasing factor-binding protein (Homo sapiens, UniProt P24387+Q13324); experiment: Dose Response confirmation of uHTS hits for small molecule antagonists of the CRF-binding protein and CRF-R2 receptor complex.; format: functional; details: read-out: IC50_Mean
T2 sequence (Q13324 whole entry): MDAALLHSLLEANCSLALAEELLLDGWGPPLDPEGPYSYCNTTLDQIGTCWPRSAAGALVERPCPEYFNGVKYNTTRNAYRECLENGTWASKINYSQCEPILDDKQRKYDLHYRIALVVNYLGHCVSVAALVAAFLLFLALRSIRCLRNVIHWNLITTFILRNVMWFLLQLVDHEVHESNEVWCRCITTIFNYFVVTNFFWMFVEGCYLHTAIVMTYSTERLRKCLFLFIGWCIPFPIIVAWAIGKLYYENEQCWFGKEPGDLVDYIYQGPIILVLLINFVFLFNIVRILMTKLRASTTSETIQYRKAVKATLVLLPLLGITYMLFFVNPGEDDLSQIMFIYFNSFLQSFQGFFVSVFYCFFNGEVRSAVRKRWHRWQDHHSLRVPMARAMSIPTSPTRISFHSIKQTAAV
T2 sequence (P24387 whole entry): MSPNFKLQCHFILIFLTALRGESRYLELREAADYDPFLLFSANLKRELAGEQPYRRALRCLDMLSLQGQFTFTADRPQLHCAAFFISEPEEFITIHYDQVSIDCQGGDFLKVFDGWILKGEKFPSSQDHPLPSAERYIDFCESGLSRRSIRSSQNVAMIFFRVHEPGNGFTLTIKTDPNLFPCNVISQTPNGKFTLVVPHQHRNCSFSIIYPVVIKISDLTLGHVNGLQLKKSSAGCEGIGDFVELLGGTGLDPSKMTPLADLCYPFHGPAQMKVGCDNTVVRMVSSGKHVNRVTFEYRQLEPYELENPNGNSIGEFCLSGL

INS1 = experiment: INS-1E survival protection against cytokine death – cell-based, luminescence, retest, dose response (AID 449756); format: functional; details: Rattus norvegicus;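 also: cell death triggered by IL-1 beta plus TNF-alpha plus IFN-gamma mixture; protective hits raise ATP signal compared with cytokine alone wells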
[5] = target: T2, Corticotropin-releasing factor receptor 2/Corticotropin-releasing factor-binding protein; experiment: activators of CRF receptor 2 with binding protein – uHTS hits, confirmation (AID 602473); format: functional; details: read-out: EC50_Mean
[6] = Trypanosoma cruzi growth suppression in host cells – NIH3T3 host cells, beta-gal luminescence, confirmation (AID 2044); format: functional, cell-based;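 also: intracellular parasites grown in NIH/3T3 mouse fibroblasts as host cells; luminescent beta-galactosidase reporter signal from transgenic T. cruzi replicating inside host cells; inhibitors lower the luminescence signal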
Streptococcus = experiment: GAS UMAA2166 growth inhibition – luminescence, BacTiterGlo, counter-screen for streptokinase expression inhibitor project, dose response (AID 1915); format: functional, organism-based;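 also: potency for reduction of bacterial viability or growth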
[7] = NIH3T3 cell viability loss – ATP luminescence, mouse fibroblasts, counter-screen, dose response (AID 2010); format: functional, cell-based;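 also: cells exposed to compound for about 90 hours before reading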
Streptokinase A = target: T3, Streptokinase A (Streptococcus pyogenes serotype M1, UniProt P10520); experiment: viability-normalized secreted streptokinase activity reduction – plasminogen activation absorbance, OD405, dose response (AID 1914); format: functional, Streptococcus pyogenes M1 GAS;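 also: secreted streptokinase activity via plasminogen activation per viability signal from cell pellet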
T3 sequence (P10520 whole entry): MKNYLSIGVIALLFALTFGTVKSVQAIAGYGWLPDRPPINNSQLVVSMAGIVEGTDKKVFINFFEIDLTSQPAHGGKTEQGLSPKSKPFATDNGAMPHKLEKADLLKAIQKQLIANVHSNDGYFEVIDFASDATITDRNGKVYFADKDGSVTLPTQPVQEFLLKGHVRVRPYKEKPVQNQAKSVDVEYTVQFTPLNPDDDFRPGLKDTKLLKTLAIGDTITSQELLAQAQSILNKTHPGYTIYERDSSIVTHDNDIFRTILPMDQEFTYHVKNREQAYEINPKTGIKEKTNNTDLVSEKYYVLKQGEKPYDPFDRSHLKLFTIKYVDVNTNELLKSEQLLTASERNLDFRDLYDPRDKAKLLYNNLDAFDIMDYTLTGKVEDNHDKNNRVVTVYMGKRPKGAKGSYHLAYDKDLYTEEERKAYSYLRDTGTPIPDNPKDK

[8] = test system: Streptococcus sp. 'group A'; experiment: Streptococcus pyogenes SK(-)GAS viability under kanamycin – luminescence, BacTiterGlo, confirmation, counter-screen for streptokinase expression inhibitor project, dose response (AID 1900); format: functional, organism-based
Fatty acid synthase [9] = target: T4, Fatty acid synthase (Homo sapiens, UniProt P49327); experiment: inhibition of human FAS-TE enzyme activity – biochemical, endpoint fluorescence intensity, uHTS hits, dose response (AID 624327); format: functional;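 also: fluorescence from hydrolysis of an O-methyl fluorescein acyl ester substrate by the enzyme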
T4 sequence (P49327 whole entry): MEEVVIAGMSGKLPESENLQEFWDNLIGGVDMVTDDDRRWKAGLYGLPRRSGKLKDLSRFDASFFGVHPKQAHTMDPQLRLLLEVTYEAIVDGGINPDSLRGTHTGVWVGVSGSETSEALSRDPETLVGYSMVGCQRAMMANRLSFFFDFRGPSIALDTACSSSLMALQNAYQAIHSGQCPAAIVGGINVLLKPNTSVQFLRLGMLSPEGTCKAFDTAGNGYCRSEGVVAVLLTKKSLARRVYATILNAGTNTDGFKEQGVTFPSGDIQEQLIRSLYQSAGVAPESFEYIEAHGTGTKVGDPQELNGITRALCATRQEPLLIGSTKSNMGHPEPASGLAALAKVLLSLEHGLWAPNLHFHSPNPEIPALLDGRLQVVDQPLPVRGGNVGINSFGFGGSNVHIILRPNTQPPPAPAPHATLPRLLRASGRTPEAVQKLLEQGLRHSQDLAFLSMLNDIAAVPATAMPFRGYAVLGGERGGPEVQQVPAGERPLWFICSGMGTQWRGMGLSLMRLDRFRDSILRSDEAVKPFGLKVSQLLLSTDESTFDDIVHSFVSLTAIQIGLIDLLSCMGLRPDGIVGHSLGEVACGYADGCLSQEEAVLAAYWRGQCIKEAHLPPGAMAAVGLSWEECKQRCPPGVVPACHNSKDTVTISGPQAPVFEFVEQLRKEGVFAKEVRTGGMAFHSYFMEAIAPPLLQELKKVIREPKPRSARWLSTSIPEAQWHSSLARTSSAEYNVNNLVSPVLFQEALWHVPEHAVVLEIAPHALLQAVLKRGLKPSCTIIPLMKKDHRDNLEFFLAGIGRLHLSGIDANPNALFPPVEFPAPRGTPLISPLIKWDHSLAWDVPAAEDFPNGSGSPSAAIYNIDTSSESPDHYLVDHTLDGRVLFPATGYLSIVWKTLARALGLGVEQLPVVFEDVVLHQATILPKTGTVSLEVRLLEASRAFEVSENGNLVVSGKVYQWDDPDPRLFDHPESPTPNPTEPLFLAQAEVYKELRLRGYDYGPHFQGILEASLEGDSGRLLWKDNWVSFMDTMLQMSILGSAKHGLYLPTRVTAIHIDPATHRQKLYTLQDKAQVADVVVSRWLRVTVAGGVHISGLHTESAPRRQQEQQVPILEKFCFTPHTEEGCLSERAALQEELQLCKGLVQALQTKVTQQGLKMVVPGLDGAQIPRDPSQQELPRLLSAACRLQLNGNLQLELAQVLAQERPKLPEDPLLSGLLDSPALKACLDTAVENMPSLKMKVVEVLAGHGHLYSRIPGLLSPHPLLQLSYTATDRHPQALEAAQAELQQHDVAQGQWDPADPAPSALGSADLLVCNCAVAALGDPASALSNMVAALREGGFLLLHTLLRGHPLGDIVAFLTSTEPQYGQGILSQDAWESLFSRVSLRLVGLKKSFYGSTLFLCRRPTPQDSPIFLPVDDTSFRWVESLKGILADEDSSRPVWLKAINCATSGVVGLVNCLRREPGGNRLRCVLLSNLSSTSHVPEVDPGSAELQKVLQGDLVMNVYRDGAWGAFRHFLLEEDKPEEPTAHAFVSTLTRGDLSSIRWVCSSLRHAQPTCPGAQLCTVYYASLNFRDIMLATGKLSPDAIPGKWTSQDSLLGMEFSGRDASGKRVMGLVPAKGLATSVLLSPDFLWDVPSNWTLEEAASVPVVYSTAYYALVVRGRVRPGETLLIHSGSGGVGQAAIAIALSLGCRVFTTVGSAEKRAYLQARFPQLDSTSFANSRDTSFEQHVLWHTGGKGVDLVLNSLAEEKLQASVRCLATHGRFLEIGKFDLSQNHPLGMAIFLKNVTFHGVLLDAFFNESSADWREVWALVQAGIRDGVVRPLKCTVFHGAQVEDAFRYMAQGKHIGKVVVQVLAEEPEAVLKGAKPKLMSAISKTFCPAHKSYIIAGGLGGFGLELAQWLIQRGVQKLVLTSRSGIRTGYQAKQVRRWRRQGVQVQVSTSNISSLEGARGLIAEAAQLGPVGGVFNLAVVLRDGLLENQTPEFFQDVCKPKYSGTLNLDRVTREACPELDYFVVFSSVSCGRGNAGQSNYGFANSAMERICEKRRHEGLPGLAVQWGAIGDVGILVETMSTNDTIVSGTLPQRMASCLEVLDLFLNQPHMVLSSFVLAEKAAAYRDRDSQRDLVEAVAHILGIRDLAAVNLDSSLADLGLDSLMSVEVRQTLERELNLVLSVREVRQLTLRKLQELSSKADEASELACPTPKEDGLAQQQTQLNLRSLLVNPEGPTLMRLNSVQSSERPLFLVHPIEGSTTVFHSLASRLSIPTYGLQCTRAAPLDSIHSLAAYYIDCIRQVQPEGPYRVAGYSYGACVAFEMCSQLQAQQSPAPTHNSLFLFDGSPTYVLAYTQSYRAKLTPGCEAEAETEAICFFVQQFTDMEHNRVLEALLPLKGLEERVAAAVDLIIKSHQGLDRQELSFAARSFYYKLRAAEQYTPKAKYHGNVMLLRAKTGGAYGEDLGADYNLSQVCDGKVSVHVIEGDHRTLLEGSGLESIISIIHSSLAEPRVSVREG

Fatty acid synthase [10] = target: T4, Fatty acid synthase; experiment: inhibition of human FAS-TE enzyme activity – biochemical, kinetic fluorescence intensity, dose response (AID 624326); format: functional;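 also: rate of fluorescence rise from hydrolysis of a fluorogenic O-methyl fluorescein ester substrate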
[11] = target: T5, Polyadenylate-binding protein 1 (Homo sapiens, UniProt P11940); experiment: MLLE domain peptide-binding blockers, IC50 – biochemical, fluorescence polarization, FITC-PAM2 peptide, dose response (AID 602259); format: functional; details: read-out: IC50_Mean
T5 sequence (P11940 whole entry, the tested form may be a part): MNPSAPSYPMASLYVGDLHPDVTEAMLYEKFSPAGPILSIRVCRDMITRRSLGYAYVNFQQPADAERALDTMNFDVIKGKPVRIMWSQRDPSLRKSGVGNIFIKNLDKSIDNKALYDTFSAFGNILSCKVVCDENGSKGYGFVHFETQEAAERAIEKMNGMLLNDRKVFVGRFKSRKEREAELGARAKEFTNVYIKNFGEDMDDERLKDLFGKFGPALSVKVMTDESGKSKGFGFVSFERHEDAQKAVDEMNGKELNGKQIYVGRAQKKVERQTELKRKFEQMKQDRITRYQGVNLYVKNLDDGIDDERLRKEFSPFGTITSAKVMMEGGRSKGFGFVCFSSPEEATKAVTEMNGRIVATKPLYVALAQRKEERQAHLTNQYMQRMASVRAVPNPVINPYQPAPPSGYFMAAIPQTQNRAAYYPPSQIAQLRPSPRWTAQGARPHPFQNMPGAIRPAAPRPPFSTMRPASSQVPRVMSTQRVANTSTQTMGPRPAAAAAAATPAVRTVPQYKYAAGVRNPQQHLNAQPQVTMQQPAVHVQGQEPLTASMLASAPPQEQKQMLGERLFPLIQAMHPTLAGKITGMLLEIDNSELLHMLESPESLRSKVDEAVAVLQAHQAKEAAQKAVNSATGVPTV

[12] = target: T5, Polyadenylate-binding protein 1; experiment: MLLE binding blockers, Cy5 peptide tracer – biochemical, fluorescence polarization, Cy5-PAM2 peptide, secondary, miRNA deadenylation inhibitor project, dose response (AID 602260); format: functional; details: read-out: IC50_Mean

CNCC(O)c1cc(OCc2ccccc2)c(OCc2ccccc2)cc1F (stereo not given)
IC50 [1]: > 20 µM (inactive) | CC50 [2]: 22.3 µM (active)

O=C1C=C(c2ccc3[nH]ccc3c2)C[C@@H](c2ccc(Cl)cc2)C1
CC50 [3]: > 40 µM (active)

CCCCCOc1ccc(NC2=CC(=O)CCC2)cc1
CC50 [3]: > 40 µM (active)

CC(=O)Cc1cc(O)c2ccccc2c1OC(=O)c1ccc(Br)cc1
IC50 [4]: > 47.1 µM (inactive) | AC50 (INS1): 14.9 µM (active) | EC50 [5]: > 53 µM (inactive)

C=CCn1c(NC(=O)c2ccc(C)cc2)nc2ccccc21
IC50 [1]: > 20 µM (inactive) | EC50 [6]: 2.11 µM (active) | EC50 (Streptococcus): > 150 µM (not active) | EC50 [7]: > 60 µM (not active) | EC50 (Streptokinase A): > 150 µM (not active) | EC50 [8]: 84.6 µM (active)

CCOC(=O)C1CCN(C(=O)COC(=O)c2cc([N+](=O)[O-])ccc2N2CCOCC2)CC1
IC50 (Fatty acid synthase [9]): 4.15 µM (active) | IC50 (Fatty acid synthase [10]): 7.1 µM (active)

COc1ccccc1S(=O)(=O)N1CCn2cccc2C1C (stereo not given)
IC50 [4]: > 47.1 µM (inactive) | EC50 [5]: > 53 µM (inactive)

CCN(CC)C(=O)CSc1nnc2nnc3cc(C)ccc3n12
IC50 [11]: 49.8 µM (inactive) | IC50 [12]: > 66 µM (inactive)

Cc1nc(NC(=S)NC(=O)c2ccco2)sc1C(=O)N(C)C
IC50 [11]: > 66 µM (inactive) | IC50 [12]: > 66 µM (inactive)

Cc1cccc2sc(N(CCN3CCOCC3)C(=O)CCS(=O)(=O)c3ccccc3)nc12
IC50 [1]: > 20 µM (inactive)

N#Cc1c(N)nc(SC2CCCCC2=O)c(C#N)c1-c1ccco1 (stereo not given)
IC50 [4]: < 0.368 µM (active) | EC50 [5]: > 53 µM (inactive)

Cc1ccc(C(=O)NC(=S)Nc2ccc3[nH]c(O)nc3c2)c(C)c1
IC50 [11]: > 66 µM (inactive) | IC50 [12]: > 66 µM (inactive)

Cn1cccc1Cc1nnc(SCC(=O)N2CCN(c3ccccc3)CC2)n1-c1ccc(F)cc1
IC50 [4]: > 47.1 µM (inactive) | EC50 [5]: > 53 µM (inactive)

CCc1ccc(S(=O)(=O)c2nnn3c2nc(N2CCOCC2)c2ccccc23)cc1
IC50 (Fatty acid synthase [9]): 14.3 µM (active) | IC50 (Fatty acid synthase [10]): 6.03 µM (active)

O=C(NC(=S)NCCO)c1cn(-c2ccccc2)nc1-c1ccccc1
IC50 [11]: > 66 µM (inactive) | IC50 [12]: > 66 µM (inactive)

Cc1cccc(OCC(O)CN2CCN(CCN3C(=O)c4cccc5cccc(c45)C3=O)CC2)c1C (stereo not given)
IC50 [1]: > 20 µM (inactive) | EC50 [6]: 2.14 µM (active) | EC50 [7]: 8.54 µM (active)

O=S(=O)(Oc1ccccc1C(=S)N1CCOCC1)c1ccc(Cl)cc1
IC50 [11]: > 66 µM (inactive) | IC50 [12]: > 66 µM (inactive)

O=S(=O)(c1cccs1)N1CCN(Cc2nc(O)c3cc(Br)cc(Br)c3n2)CC1
IC50 (Fatty acid synthase [9]): 12.5 µM (active) | IC50 (Fatty acid synthase [10]): 9.03 µM (active)

Cn1nc(C(C)(C)C)cc1NC(=O)Nc1cc(Cl)cc(Cl)c1
CC50 [3]: 11.3 µM (active)
